Measurements taken from patent US12071431B2, “Pyridin-sulfonamide compounds for the treatment of conditions related to interleukin 1 beta” (ALLINKY BIOPHARMA, priority 2018, dated 2024).

Legend:
IL-1β = experiment: In vitro inhibition of IL-1β in human primary macrophages challenged with LPS (ELISA); assay type: cell-based; conditions: Primary macrophage, 2 hours compound pre-treatment, 100 ng/mL LPS, 16 hours, read-out: IC50 (IL-Iβ inhibition)
Description: Example 12—In Vitro Inhibition of IL-1β in Human Primary Macrophages Challenged with LPS
5 mL of RPMI media without serum (1:1) was added to a sample of 5 mL of human whole blood in EDTA or sodium citrate and mixed well by inversion. 3 mL of Histopaque-1077 was added to a 15 mL conical centrifuge tube and brought to room temperature. Using a transfer pipette, 10 mL of the blood-RPMI mixture was carefully layered onto the Histopaque-1077 and was centrifuged at 400×g for exactly 30 minutes at room temperature.
After centrifugation, a pasteur pipette was used to aspirate the upper layer to within 0.5 cm of the opaque interface containing the mononuclear cells. The upper layer was discarded. With a Pasteur pipette, the opaque interface was carefully transferred to a clean conical centrifuge tube. 5 mL RPMI was added to the tube and mixed by inversion, followed by centrifugation at 250×g for exactly 10 minutes. The supernatant was aspirated and discarded.
The leukocyte pellet was re-suspended with 5 mL RPMI and mixed gently with a Pasteur pipette, followed by centrifugation at 250×g for exactly 10 minutes. The pellet was washed 3× with PBS and re-suspended in RPMI medium.
2×10^5 PBMCs at a total volume of 200 μL/well were plated into a 96-well plate and incubated for 4 hrs at 37° C. in a CO2 incubator to allow the monocytes to settle, leaving the lymphocytes in suspension. Following incubation, 100 μL were aspirated out of each well to ensure removal of the lymphocyte population.
The monocytes were differentiated to macrophages by addition of 200 ng/mL of recombinant human GM-CSF (4 mg/mL stock) and incubated at 37° C./5% CO2 for 6 days. The medium was changed every two days by removing half the volume of medium in the well and re-supplementing with fresh RPMI complete medium and recombinant human GM-CSF.
Following differentiation, the cells were treated in duplicates with a compound according to the invention in a total volume of 50 μL, maintaining a final DMSO percentile of 0.5%. The plate was transferred to an incubator maintained at 37° C./5% CO2 for 2 hours. The cells were stimulated with 100 ng/mL of LPS (4×) (1 mg/mL stock) in a total volume of 50 μL.
The plate was transferred to an incubator maintained at 37° C./5% CO2 for 16 hours.
• 1. Each well from a pre-coated ELISA plate was aspirated and washed with wash buffer (0.05% Tween 20 in PBS; pH 7.2-7.4) by filling each well with wash buffer (300 μL). The process was repeated two times for a total of three washes. The liquid was removed completely at each step. After the last wash, any remaining wash buffer was removed. • 2. Plates were blocked by adding 300 μL of block buffer (1% BSA in PBS) to each well and incubated at room temperature for 1 hour. • 3. The aspiration/wash as in step 1 was repeated. • 4. 100 μL of sample or standard prepared in reagent diluent (0.1% BSA, 0.05% Tween 20 in PBS pH7.2-7.4) was added. The wells were covered with an adhesive strip and incubated for 2 hours at room temperature. • 5. The aspiration/wash as in step 1 was repeated. • 6. 100 μL of detection antibody, diluted in reagent diluent, was added to each well. The wells were covered with a new adhesive strip and incubated for 2 hours at room temperature. • 7. The aspiration/wash as in step 1 was repeated. • 8. 100 μL of the working dilution (1:200 from the stock) and streptavidin-HRP was added to each well. The plate was covered and incubated for 20 minutes at room temperature. • 9. 100 μL of substrate solution (1:1 mixture of H2O2 and tetramethylbenzidine) was added to each well and incubated for 20 minutes at room temperature. • 10.50 μL of stop solution (2N H2SO4) was added to each well. The plate was tapped gently to ensure thorough mixing. • 11. The optical density of each well was determined immediately using a microplate reader (Spectramax Plus) set to 450 nm. Cytokine Viability Assessment […]

[1] = system: human primary macrophages; experiment: Cell viability assessment (CellTiter-Glo) in the macrophage assay plates; assay type: cell-based; parameters: concentration or dose not given beside the values; conditions: CellTiter-Glo luminescent assay
Description: 2×10^5 PBMCs at a total volume of 200 μL/well were plated into a 96-well plate and incubated for 4 hrs at 37° C. in a CO2 incubator to allow the monocytes to settle, leaving the lymphocytes in suspension. Following incubation, 100 μL were aspirated out of each well to ensure removal of the lymphocyte population. The monocytes were differentiated to macrophages by addition of 200 ng/mL of recombinant human GM-CSF (4 mg/mL stock) and incubated at 37° C./5% CO2 for 6 days. The medium was changed every two days by removing half the volume of medium in the well and re-supplementing with fresh RPMI complete medium and recombinant human GM-CSF. Following differentiation, the cells were treated in duplicates with a compound according to the invention in a total volume of 50 μL, maintaining a final DMSO percentile of 0.5%. The plate was transferred to an incubator maintained at 37° C./5% CO2 for 2 hours. The cells were stimulated with 100 ng/mL of LPS (4×) (1 mg/mL stock) in a total volume of 50 μL. The plate was transferred to an incubator maintained at 37° C./5% CO2 for 16 hours. 100 μl/well volume of CellTiter-Glo® luminescent reagent was added to the assay plates and incubated at room temperature for 30 mins on a plate shaker. Following incubation, the luminescent signal of each well was determined using a microplate reader (Perkin Elmer ENVISION 2104). Cytotoxicity of the test compounds was determined utilizing the following formula: % Cytotoxicity=100−(100*(Average Test Compound Counts−Average Negative Control Counts)/(Average Positive Control Counts−Average Negative Control Counts)) All of the “Counts” stated in this formula are derived from “luminescent signal” determined as described for the cytokine viability assessment.

[2] = system: Non-Alcoholic Steatohepatitis (NASH) in male C57BL/6 mice; experiment: Treatment of non-alcoholic steatohepatitis (NASH) in male C57BL/6 mice (streptozotocin + high-fat diet); assay type: in vivo; conditions: for hepatomegaly and liver to body weight ratio: 28 days of treatment, FIG. 3
Description: Example 15: Effect of Compound 5 and 7 in the Treatment of Non-Alcoholic Steatohepatitis (NASH) in Male C57BL/6 Mice
Timed pregnant mice (n=30) were selected for the study. The delivered pups were subcutaneously injected on the post-natal day 2 (PND-2) with 200 μg of Streptozotocin and were allowed to remain with the mother until they reached the weanling age. After weanling, the male pups were selected and fed with 60% kcal fat diet (Research Diet-D12492) for the next 2 weeks. All the animals were observed twice daily for clinical signs.
Mice were dosed with vehicle, test compounds and reference compound (elafibranor) twice daily morning (9.00 AM) and evening before the start of dark cycle (6:00 PM) from day 0 to 28.
Animal body weight measurements were made daily for the complete duration of the experiment.
Animals were dosed for 28 days (from week 6 to 10) with the test and reference compounds.
Blood glucose was estimated before the treatment start and on the termination day 28. Serum ALT and AST levels were measured from the plasma before the treatment start and on day 28.
Histopathology analysis including H&E staining, Masson's trichrome staining and Oil-Red-O (ORO) staining was performed for the liver tissues.
All the H&E stained tissue sections were examined by light microscopy. As per the below grading system (Kleiner et al., 2005) in 200× objective lens, NAFLD scoring was done for steatosis, lobular inflammation and hepatic ballooning.
All the Masson's trichrome stained tissue sections were examined by light microscopy in 100× objective lens. Randomly selected five fields (approx 684.85 μm×917.11 m per field) from each liver were subjected to collagen proportion area measurement by using Image Pro Premier 9.1 software. The percentage of collagen proportion area was calculated by dividing collagen tissue area by total tissue area.
All the Oil-Red-O stained tissue sections were examined by light microscopy in 100× objective lens. Randomly selected five fields (approximately 688.33 μm×922.45 μm per field) from each liver were subjected to measure stained area by using Image Pro Premier 9.1 software. The percentage of stained area was calculated by dividing lipid stained tissue area by total tissue area.

Bleomycin-induced IPF = experiment: Treatment of bleomycin-induced IPF in mice; assay type: in vivo
Text: Example 16: Effect of Compound 7 in the Treatment of Bleomycin-Induced IPF Timed pregnant mice (n=30) were selected for the study. The delivered pups were subcutaneously injected on the post-natal day 2 (PND-2) with 1.5 U/kg of Bleomycin (intra-tracheal) and were allowed to remain with the mother until they reached the weanling age. After weanling, the male pups were selected and fed with 60% kcal fat diet (Research Diet-D12492) for the next week. All the animals were observed twice daily for clinical signs. Mice were orally dosed with vehicle, test compounds and reference compound (Pirfenidone) twice daily morning (9.00 AM) and evening before the start of dark cycle (6:00 PM) from day 0 to 14. Animal body weight measurements were made daily for the complete duration of the experiment. Animals were dosed for 14 days with the test and reference compounds. Lung hydroxyproline level was estimated before the treatment start and on the termination day 14. Total cell count and differential leukocyte count in BALF were measured before the treatment start and on […]. Histopathology analysis in the form of H&E Ashcroft score was performed for the lung tissues. All the H&E stained tissue sections were examined by light microscopy. As per the below grading system (Kleiner et al., 2005) in 200× objective lens, IPF scoring was carried out. Collagen Proportion Area (% CPA) Measurement: Masson's Trichrome Staining All the Masson's trichrome stained tissue sections were examined by light microscopy in 100× objective lens. Randomly selected five fields (approx 684.85 μm×917.11m per field) from each lung were subjected to collagen proportion area measurement by using Image Pro Premier 9.1 software. The percentage of collagen proportion area was calculated by dividing collagen tissue area by total tissue area.

[3] = 3 mg/kg dose, twice daily, 28 days, H&E NAFLD scoring

Compound | IC50 (IL-1β) [nM] | Cell viability [1] [%] | also measured
CN(C)S(=O)(=O)c1cnc(N2CCC(Oc3ccc(Cl)cc3)CC2)c(-c2ccc3c(c2)CCO3)c1 [Compound 1] | 115 | 100 | 
CN(C)S(=O)(=O)c1cnc(N2CCC(Oc3ccc(Cl)cc3)CC2)c(Nc2ccc3c(c2)CCO3)c1 [Compound 2] | 29 | 100 | 
CN(C)S(=O)(=O)c1cnc(N2CCC(Oc3ccc(Cl)cc3)CC2)c(Nc2ccc3c(c2)OCO3)c1 [Compound 3] | 121 | 100 | 
CCCOc1ccc(Nc2cc(S(=O)(=O)N(C)C)cnc2N2CCN(Cc3ccc(Cl)cc3)CC2)cc1 [Compound 4] | 300 | 100 | 
CN(C)S(=O)(=O)c1cnc(N2CCC(Oc3ccc(Cl)cc3)CC2)c(Nc2ccc3oc(CO)cc3c2)c1 [Compound 6] | 13 | 100 | 
CCOc1ccc(Oc2cc(S(C)(=O)=O)cnc2N2CCC(Oc3ccc(Cl)cc3)CC2)cc1 [Compound 11] | 753 | 100 | 
CSc1ccc(C(=O)/C=C/c2cc(C)c(OC(C)(C)C(=O)O)c(C)c2)cc1 [Elafibranor, reference compound] |  |  | hepatomegaly and liver to body weight ratio [2]: hepatomegaly and increase in liver to body weight ratio
Cc1ccc(=O)n(-c2ccccc2)c1 [Pirfenidone, reference compound] |  |  | BALF macrophage counts (Bleomycin-induced IPF; compared with Bleomycin control, Compound 7 p>0.05, Pirfenidone p<0.05, FIGS. 5A and 5B): reduced; % CPA (Collagen Proportion Area) (Bleomycin-induced IPF; lung, Masson's trichrome, in comparison with Bleomycin control, p<0.05, FIG. 6B): significant reduction; fibrosis score (H&E Ashcroft Score) (Bleomycin-induced IPF; lung, in comparison with Bleomycin control, p<0.05, FIG. 6A): significant reduction

More lines, main results first:

IC50 (IL-1β) [nM] | Compound | Cell viability [1] [%] | also measured
28 | CN(C)S(=O)(=O)c1cnc(N2CCC(Oc3ccc(Cl)cc3)CC2)c(Oc2ccc3c(c2)CCO3)c1 [Compound 5] | 100 | NAFLD activity score (NAS) ([2]; 3 mg/kg dose, twice daily, 28 days, FIG. 1): significant reduced NAS score than disease controls; hepatic ballooning [2, 3]: trend towards decreased; lobular inflammation in the liver [2, 3]: significantly reduced; steatosis in the liver [2, 3]: trend towards decreased; hepatomegaly and liver to body weight ratio [2]: did not show any hepatomegaly and increase in liver to body weight ratio; Serum AST levels ([2]; after 28 days of treatment, FIG. 2): significantly reduced
337 | CCOc1ccc(Oc2cc(S(=O)(=O)N(C)C)cnc2N2CCC(Oc3ccc(C(N)=O)nc3)CC2)cc1 [Compound 8] | 100 | 
531 | CN(C)S(=O)(=O)c1cnc(N2CCC(Oc3ccc(C(N)=O)nc3)CC2)c(Oc2ccc(OC(F)(F)F)cc2)c1 [Compound 9] | 100 | 
410 | Cc1ccc(Oc2cc(S(=O)(=O)N(C)C)cnc2N2CCC(Oc3ccc(C(N)=O)nc3)CC2)cc1 [Compound 10] | 100 | 
2300 | CN(C)S(=O)(=O)c1cnc(N2CCC(Oc3ccc(C(N)=O)nc3)CC2)c(Oc2ccc3c(c2)CCO3)c1 [Compound 12] | 100 | 
